System: AT-rich palindromic dodecanucleotide dsDNA (DNA, duplex) CGCAAATTTGCG
Assay: photoluminescence titration
Conditions: dsDNA stock 10 mM Tris, 0.1 mM EDTA pH 8.0, 25 °C

| binding (dsDNA (0-8 µM) into 8 µM compound in D2O) | binding (dsDNA (0-10 µM) into 10 µM compound in D2O) | SMILES |
| --- | --- | --- |
| yes |  | CN1CCN(c2ccc3nc(-c4ccc5nc(-c6ccc(O)cc6)[nH]c5c4)[nH]c3c2)CC1 |
|  | yes | Cn1ccc(=Nc2ccc(NC(=O)c3ccc(N=c4ccn(C)c5ccc([N+](=O)[O-])cc45)cc3)cc2)cc1 |

From article PMC12603272 (2025)
